system: HBV; assay: HBV-DNA Antiviral Assay Using HepG2.117 Cells (intracellular HBV DNA by qPCR); assay type: cell-based, hepatitis B virus (genotype D); conditions: Hepatitis B virus, HepG2.117
Procedure, shortened: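 HepG2.117 cells (genotype D HBV, Tet-off) were induced by doxycycline withdrawal and treated for 3 days with 9 concentrations in 4-fold dilution, 2% DMSO final. Intracellular HBV DNA was measured by qPCR against a standard curve, with ATPlite viability read in parallel. EC50, EC90 and CC50 came from fits against the DMSO control.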

**Q.** How did the EC50 turn out when `O=C(NCc1ccccc1-c1cnccn1)c1c2n(c(=O)n1-c1ccc(OC3CC3)cc1)CCN(C(=O)c1ccc(Br)c(Cl)c1)C2` [Example 401, 7-(4-bromo-3-chloro-benzoyl)-2-[4-(cyclopropoxy)phenyl]-3-oxo-N-[(2-pyrazin-2-ylphenyl)methyl]-6,8-dihydro-5H-imidazo[1,5-a]pyrazine-1-carboxamide] was run?
**A.** Its EC50 is under 100 nM.

**Q.** Which EC50 does the source give for `N#CCOc1ccc(CNC(=O)c2c3n(c(=O)n2-c2ccc(OC4CC4)cc2)CCN(C(=O)c2ccc(Br)c(Cl)c2)C3)c(F)c1` [Example 323, 7-(4-bromo-3-chloro-benzoyl)-N-[[4-(cyanomethoxy)-2-fluoro-phenyl]methyl]-2-[4-(cyclopropoxy)phenyl]-3-oxo-6,8-dihydro-5H-imidazo[1,5-a]pyrazine-1-carboxamide] here?
**A.** The EC50 was 100 to 500 nM.

**Q.** With `CN(Cc1ccccc1)C(=O)c1c2n(c(=O)n1-c1ccccc1)CCN(C(=O)c1ccc(Br)c(Cl)c1)C2` [Example 27, N-benzyl-7-(4-bromo-3-chloro-benzoyl)-N-methyl-3-oxo-2-phenyl-6,8-dihydro-5H-imidazo[1,5-a]pyrazine-1-carboxamide] as the compound, how does the EC50 read?
**A.** The EC50 was 500 to 5000 nM.

**Q.** How did the EC50 turn out when `COc1ccc(-n2c(C(=O)NCc3cccc4cccnc34)c3n(c2=O)CCN(C(=O)c2ccc(Br)c(Cl)c2)C3)cc1` [Example 166, 7-(4-bromo-3-chloro-benzoyl)-2-(4-methoxyphenyl)-3-oxo-N-(8-quinolylmethyl)-6,8-dihydro-5H-imidazo[1,5-a]pyrazine-1-carboxamide] was run?
**A.** The EC50 was 100 to 500 nM.

**Q.** `O=C1CCc2cc(-n3c(C(=O)NCc4ccccc4)c4n(c3=O)CCN(C(=O)c3ccc(Br)c(Cl)c3)C4)ccc2N1` [Example 403, N-benzyl-7-(4-bromo-3-chloro-benzoyl)-3-oxo-2-(2-oxo-3,4-dihydro-1H-quinolin-6-yl)-6,8-dihydro-5H-imidazo[1,5-a]pyrazine-1-carboxamide] was tested. Which EC50 did it give?
**A.** The EC50 was 500 to 5000 nM.

**Q.** `O=C(NCc1c(F)ccc2nccnc12)c1c2n(c(=O)n1-c1ccc(-n3cccn3)cc1)CCN(C(=O)c1ccc(Br)c(Cl)c1)C2` [Example 458, 7-(4-bromo-3-chloro-benzoyl)-N-[(6-fluoroquinoxalin-5-yl)methyl]-3-oxo-2-(4-pyrazol-1-ylphenyl)-6,8-dihydro-5H-imidazo[1,5-a]pyrazine-1-carboxamide] was tested. Which EC50 did it give?
**A.** Its EC50 is 100 to 500 nM.

**Q.** For `CC(C)(Oc1ccc(CNC(=O)c2c3n(c(=O)n2-c2ccc(OC4CC4)cc2)CCN(C(=O)c2ccc(Br)c(Cl)c2)C3)c(F)c1)C(N)=O` [Example 365, N-[[4-(2-amino-1,1-dimethyl-2-oxo-ethoxy)-2-fluoro-phenyl]methyl]-7-(4-bromo-3-chloro-benzoyl)-2-[4-(cyclopropoxy)phenyl]-3-oxo-6,8-dihydro-5H-imidazo[1,5-a]pyrazine-1-carboxamide], which EC50 is on record?
**A.** The EC50 was under 100 nM.

**Q.** With `C[C@@H]1Cn2c(c(C(=O)N[C@H](C)c3ccccc3)n(-c3ccc(OC4CC4)cc3)c2=O)CN1C(=O)c1ccc(Br)c(Cl)c1` (mixture of isomers) [Example 331, (6RS)-7-(4-bromo-3-chloro-benzoyl)-2-[4-(cyclopropoxy)phenyl]-6-methyl-3-oxo-N-[(1S)-1-phenylethyl]-6,8-dihydro-5H-imidazo[1,5-a]pyrazine-1-carboxamide] as the compound, how does the EC50 read?
**A.** The EC50 was 500 to 5000 nM.

**Q.** With `C[C@@H](Oc1ccc([C@@H](C)NC(=O)c2c3n(c(=O)n2-c2ccc(OC4CC4)cc2)CCN(C(=O)c2ccc(Br)c(Cl)c2)C3)c(F)c1)C(N)=O` (stereo in doubt) [Example 355, 7-(4-bromo-3-chloro-benzoyl)-2-[4-(cyclopropoxy)phenyl]-3-oxo-N-[rac-(1R)-1-[2-fluoro-4-[rac-(1R)-2-amino-1-methyl-2-oxo-ethoxy]phenyl]ethyl]-6,8-dihydro-5H-imidazo[1,5-a]pyrazine-1-carboxamide] as the compound, how does the EC50 read?
**A.** Its EC50 is 500 to 5000 nM.

**Q.** With `CC(C)Oc1ccc(-n2c(C(=O)NCc3ccc(C(=O)O)cc3)c3n(c2=O)CCN(C(=O)c2ccc(Br)c(Cl)c2)C3)cc1` [Example 294, 4-[[[7-(4-bromo-3-chloro-benzoyl)-2-(4-isopropoxyphenyl)-3-oxo-6,8-dihydro-5H-imidazo[1,5-a]pyrazine-1-carbonyl]amino]methyl]benzoic acid] as the compound, how does the EC50 read?
**A.** The EC50 was over 5000 nM.

**Q.** `O=C(NCc1ccccc1)c1c2n(c(=O)n1-c1ccc(N3CCO[C@H](C(F)(F)F)C3)cc1)CCN(C(=O)c1ccc(Br)c(Cl)c1)C2` [Example 415, N-benzyl-7-(4-bromo-3-chloro-benzoyl)-2-[4-(2,2-difluoro-1λ^2-fluora-8-oxa-5-azaspiro[2.5]octan-5-yl)phenyl]-3-oxo-6,8-dihydro-5H-imidazo[1,5-a]pyrazine-1-carboxamide] was tested. Which EC50 did it give?
**A.** The EC50 was 100 to 500 nM.

**Q.** How did the EC50 turn out when `C[C@@H]1Cn2c(c(C(=O)NCc3ccccc3-n3cncn3)n(-c3ccc(OC4CC4)cc3)c2=O)CN1C(=O)c1ccc(Br)c(Cl)c1` (stereo in doubt) [Example 447, rac-(6R)-7-(4-bromo-3-chloro-benzoyl)-2-[4-(cyclopropoxy)phenyl]-6-methyl-3-oxo-N-[[2-(1,2,4-triazol-1-yl)phenyl]methyl]-6,8-dihydro-5H-imidazo[1,5-a]pyrazine-1-carboxamide] was run?
**A.** The EC50 was 100 to 500 nM.

**Q.** For `C[C@H](NC(=O)c1c2n(c(=O)n1-c1ccc(OC3CC3)cc1)CCN(C(=O)c1ccc(Br)c(Cl)c1)C2)c1ccc(OCC#N)cc1F` (stereo in doubt) [Example 343, 7-(4-bromo-3-chloro-benzoyl)-2-[4-(cyclopropoxy)phenyl]-3-oxo-N-[rac-(1S)-1-[4-(cyanomethoxy)-2-fluoro-phenyl]ethyl]-6,8-dihydro-5H-imidazo[1,5-a]pyrazine-1-carboxamide], which EC50 is on record?
**A.** The EC50 was 100 to 500 nM.

**Q.** `C[C@H]1Cn2c(c3n(c2=O)C[C@@H](F)CN(Cc2ccccc2)C3=O)CN1C(=O)c1ccc(Br)c(Cl)c1` (stereo in doubt) [Example 371, 13-benzyl-4-(4-bromo-3-chlorobenzoyl)-11-fluoro-4,7,9,13-tetraazatricyclo[7.5.0.0^[2,7]]tetradec-1-ene-8,14-dione] was tested. Which EC50 did it give?
**A.** The EC50 was under 100 nM.

**Q.** With `COc1ccc([C@H](C)NC(=O)c2c3n(c(=O)n2-c2ccc(OC)cc2)CCN(C(=O)c2ccc(Br)c(Cl)c2)C3)cc1` (stereo in doubt) [Example 73, 7-(4-bromo-3-chloro-benzoyl)-2-(4-methoxyphenyl)-3-oxo-N-[rac-(1S)-1-(4-methoxyphenyl)ethyl]-6,8-dihydro-5H-imidazo[1,5-a]pyrazine-1-carboxamide] as the compound, how does the EC50 read?
**A.** The EC50 was under 100 nM.

**Q.** Which EC50 does the source give for `C[C@@H](NC(=O)c1c2n(c(=O)n1C1CC1)CCN(C(=O)c1ccc(Br)c(Cl)c1)C2)c1ccccc1` (stereo in doubt) [Example 189, 7-(4-bromo-3-chloro-benzoyl)-2-cyclopropyl-3-oxo-N-[rac-(1R)-1-phenylethyl]-6,8-dihydro-5H-imidazo[1,5-a]pyrazine-1-carboxamide] here?
**A.** Its EC50 is 500 to 5000 nM.

**Q.** For `O=C(NCc1ccccc1)c1c2n(c(=O)n1-c1ccc(N3CCOCC3)cc1)CCN(C(=O)c1ccc(Br)c(Cl)c1)C2` [Example 278, N-benzyl-7-(4-bromo-3-chloro-benzoyl)-2-(4-morpholinophenyl)-3-oxo-6,8-dihydro-5H-imidazo[1,5-a]pyrazine-1-carboxamide], which EC50 is on record?
**A.** The EC50 was 100 to 500 nM.

**Q.** How did the EC50 turn out when `COc1ccc(-n2c(C(=O)N[C@@H](CO)c3ccccc3)c3n(c2=O)CCN(C(=O)c2ccc(Br)c(Cl)c2)C3)cc1` (racemic) [Example 144, 7-(4-bromo-3-chloro-benzoyl)-2-(4-methoxyphenyl)-3-oxo-N-[rac-(1R)-2-hydroxy-1-phenyl-ethyl]-6,8-dihydro-5H-imidazo[1,5-a]pyrazine-1-carboxamide] was run?
**A.** Its EC50 is 500 to 5000 nM.

**Q.** With `C[C@@H](NC(=O)c1c2n(c(=O)n1-c1ccc(OC3CC3)cc1)CCN(C(=O)c1ccc(Br)c(Cl)c1)C2)c1ccc(OC(F)(F)F)cc1F` (stereo in doubt) [Example 290, 7-(4-bromo-3-chloro-benzoyl)-2-[4-(cyclopropoxy)phenyl]-3-oxo-N-[rac-(1R)-1-[2-fluoro-4-(trilfuoromethoxy)phenyl]ethyl]-6,8-dihydro-5H-imidazo[1,5-a]pyrazine-1-carboxamide] as the compound, how does the EC50 read?
**A.** The EC50 was 500 to 5000 nM.

**Q.** How did the EC50 turn out when `CC(C)Oc1ccc(-n2c(C(=O)NCc3ccc(CO)cc3)c3n(c2=O)CCN(C(=O)c2ccc(Br)c(Cl)c2)C3)cc1` [Example 221, 7-(4-bromo-3-chloro-benzoyl)-N-[[4-(hydroxymethyl)phenyl]methyl]-2-(4-isopropoxyphenyl)-3-oxo-6,8-dihydro-5H-imidazo[1,5-a]pyrazine-1-carboxamide] was run?
**A.** The EC50 was over 5000 nM.

**Q.** How did the EC50 turn out when `COc1ccc(-n2c(C(=O)NCc3ccccc3C#N)c3n(c2=O)CCN(C(=O)c2ccc(Br)c(Cl)c2)C3)cc1` [Example 154, 7-(4-bromo-3-chloro-benzoyl)-N-[(2-cyanophenyl)methyl]-2-(4-methoxyphenyl)-3-oxo-6,8-dihydro-5H-imidazo[1,5-a]pyrazine-1-carboxamide] was run?
**A.** Its EC50 is 100 to 500 nM.

**Q.** With `CC1Cn2c(c(C(=O)NCc3ccccc3-c3ncccn3)n(-c3ccc(OC4CC4)cc3)c2=O)CN1C(=O)c1ccc(Br)c(C#N)c1` (racemic) [Example 451, rac-(6R)-7-(4-bromo-3-cyano-benzoyl)-2-[4-(cyclopropoxy)phenyl]-6-methyl-3-oxo-N-[(2-pyrimidin-2-ylphenyl)methyl]-6,8-dihydro-5H-imidazo[1,5-a]pyrazine-1-carboxamide] as the compound, how does the EC50 read?
**A.** The EC50 was 100 to 500 nM.

**Q.** `CC(C)Oc1ccc(-n2c(C(=O)NCc3ccccc3)c3n(c2=O)CCN([C@H](c2ccc(Br)c(Cl)c2)C(F)(F)F)C3)cc1` (racemic) [Example 240, N-benzyl-2-(4-isopropoxyphenyl)-3-oxo-7-[rac-(1R)-1-(4-bromo-3-chloro-phenyl)-2,2,2-trifluoro-ethyl]-6,8-dihydro-5H-imidazo[1,5-a]pyrazine-1-carboxamide] was tested. Which EC50 did it give?
**A.** Its EC50 is over 5000 nM.

**Q.** Which EC50 does the source give for `COc1ccc(-n2c(C(=O)N[C@@H](c3ccccc3)C3CC3)c3n(c2=O)CCN(C(=O)c2ccc(Br)c(Cl)c2)C3)cc1` (racemic) [Example 149, 7-(4-bromo-3-chloro-benzoyl)-2-(4-methoxyphenyl)-3-oxo-N-[rac-(R)-cyclopropyl(phenyl)methyl]-6,8-dihydro-5H-imidazo[1,5-a]pyrazine-1-carboxamide] here?
**A.** The EC50 was 500 to 5000 nM.
